# Measurements from article PMC9655341 (Molecules, 2022).
# Assays:
# human MT2 receptors [1] = target: T1, human MT2 receptors (Homo sapiens, UniProt P49286); assay: Binding affinity at human MT2 receptors stably transfected in CHO cells, 2-[125I]iodomelatonin; conditions: read-out: MT2 pKi (Mean ± SD) (converted)
# T1 construct: expressed in transfected cells; host or cells: CHO (Chinese hamster ovary) cells, stably transfected
# T1 sequence (P49286 1-362): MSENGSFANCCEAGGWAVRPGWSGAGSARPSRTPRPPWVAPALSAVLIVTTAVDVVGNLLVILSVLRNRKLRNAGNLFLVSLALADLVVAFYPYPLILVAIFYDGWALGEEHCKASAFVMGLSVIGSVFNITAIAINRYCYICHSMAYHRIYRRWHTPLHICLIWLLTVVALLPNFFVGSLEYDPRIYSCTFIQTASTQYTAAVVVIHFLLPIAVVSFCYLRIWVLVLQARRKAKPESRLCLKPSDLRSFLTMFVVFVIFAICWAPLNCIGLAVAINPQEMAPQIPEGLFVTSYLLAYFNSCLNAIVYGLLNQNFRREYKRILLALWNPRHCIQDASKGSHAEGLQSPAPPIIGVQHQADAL
# human MT1 receptors [2] = target: T2, human MT1 receptors (Homo sapiens, UniProt P48039); assay: Binding affinity at human MT1 receptors stably transfected in CHO cells, 2-[125I]iodomelatonin; conditions: read-out: MT1 pKi (Mean ± SD) (converted)
# T2 construct: expressed in transfected cells; host or cells: CHO (Chinese hamster ovary) cells, stably transfected
# human MT2 receptors [3] = target: T1, human MT2 receptors; assay: Intrinsic activity at human MT2 receptors stably transfected in CHO cells; assay type: biochemical; conditions: MT2, melatonin = 1.00
# human MT1 receptors [4] = target: T2, human MT1 receptors; assay: Intrinsic activity at human MT1 receptors stably transfected in CHO cells; assay type: biochemical; conditions: MT1, melatonin = 1.00
# [5] = target: T3, human MT1 melatonin receptor (Homo sapiens, UniProt P48039); assay: Radioligand binding assay at human MT1 (MDS Pharma Services), 2-[125I]iodomelatonin; conditions: for inhibition at 50 pM: MT1, concentration 0.05 nM; for inhibition at 0.001 µM: MT1, concentration 1 nM; for inhibition at 1 µM: MT1, concentration 1 µM
# T3 construct: expressed in transfected cells; host or cells: CHO (Chinese hamster ovary) cells, stably transfected
# [6] = Oxidation of 2,3-dihydroindoles in solution (NMR tube, storage in DMSO solution); assay type: physicochemical
# Source text: Despite stability in the solid phase, the obtained 2,3-dihydroindoles are sensitive to oxidation in solution. Thus, the oxidation in the NMR tube occurred both in spiro and 3H-containing indolines, but led to different types of products. […] The compounds 8i,l,g were also partially converted to aromatic indoles 9i,l,g during purification by column chromatography.
# [formula] Scheme 10 Oxidative conversion of 2,3-dihydroindoles during storage in DMSO solution.
# [7] = target: T4, human MT2 melatonin receptor (Homo sapiens, UniProt P49286); assay: Radioligand binding assay at human MT2 (MDS Pharma Services), 2-[125I]iodomelatonin; conditions: for IC50 / Ki / nH (Hill coefficient): MT2; for inhibition at 50 pM: MT2, concentration 0.05 nM; for inhibition at 0.001 µM: MT2, concentration 1 nM; for inhibition at 1 µM: MT2, concentration 1 µM
# T4 construct: expressed in transfected cells; host or cells: CHO (Chinese hamster ovary) cells, stably transfected
# T4 sequence (P49286 1-362): T1 sequence (P49286 1-362)
# Protocol: The newly synthesized indole derivatives were evaluated for their binding affinity and intrinsic activity at human MT1 and MT2 receptors stably transfected in Chinese hamster ovary (CHO) cells using 2-[^125I]iodomelatonin as a radioligand, and the results are shown in Table 5 and Table 6.
# T2 sequence (P48039 whole entry): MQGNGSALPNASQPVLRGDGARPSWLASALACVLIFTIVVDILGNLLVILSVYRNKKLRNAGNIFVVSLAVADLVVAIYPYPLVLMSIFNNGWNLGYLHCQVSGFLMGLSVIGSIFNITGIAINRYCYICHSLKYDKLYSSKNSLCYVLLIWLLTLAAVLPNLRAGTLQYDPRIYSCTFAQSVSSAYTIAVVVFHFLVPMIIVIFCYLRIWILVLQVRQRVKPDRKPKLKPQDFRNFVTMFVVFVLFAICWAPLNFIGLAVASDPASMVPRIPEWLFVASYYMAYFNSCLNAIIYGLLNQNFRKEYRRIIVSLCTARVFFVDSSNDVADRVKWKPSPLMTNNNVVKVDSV
# T3 sequence (P48039 whole entry): as above
compound,measurement,setting,value
"COc1ccc2c(c1)C(CCNC(C)=O)CN2Cc1ccccc1 (stereo not drawn) [8h, N-[2-(1-Benzyl-5-methoxy-2,3-dihydro-1H-indol-3-yl)ethyl]acetamide]",Ki,human MT2 receptors [1],2.29 nM
same,Ki,human MT1 receptors [2],5.25 nM
same,MT2 Intrinsic Activity,human MT2 receptors [3],0.85 ± 0.08
same,MT1 Intrinsic Activity,human MT1 receptors [4],1.04 ± 0.14
"COc1ccc2c(c1)C(C)(CCNC(C)=O)CN2C (stereo not drawn) [8e, N-[2-(1,3-Dimethyl-5-methoxy-2,3-dihydro-1H-indol-3-yl)ethyl]acetamide]",Ki,human MT2 receptors [1],195 nM
same,Ki,human MT1 receptors [2],58.9 nM
same,MT2 Intrinsic Activity,human MT2 receptors [3],0.96 ± 0.07
same,MT1 Intrinsic Activity,human MT1 receptors [4],0.94 ± 0.10
"COc1ccc2[nH]cc(CCNC(C)=O)c2c1 [Melatonin, 3-(2-(acetylamino)ethyl)-5-methoxyindole, reference compound]",nH (Hill coefficient),[5]; MT1,0.774
same,MT1 Intrinsic Activity,human MT1 receptors [4],1.00 ± 0.03
"COc1ccc2c(c1)C(C)(CCNC(C)=O)CN2Cc1ccccc1 (stereo not drawn) [8f, N-[2-(1-Benzyl-3-methyl-5-methoxy-2,3-dihydro-1H-indol-3-yl)ethyl]acetamide]",Ki,human MT2 receptors [1],46.8 nM
same,Ki,human MT1 receptors [2],112 nM
same,MT2 Intrinsic Activity,human MT2 receptors [3],0.61 ± 0.03
same,MT1 Intrinsic Activity,human MT1 receptors [4],0.63 ± 0.14
"CC(=O)NCCC1CN(C)c2c1ccc(C)c2C (stereo not drawn) [8l, N-[2-(1,6,7-Trimethyl −2,3-dihydro-1H-indol-3-yl)ethyl]acetamide]",Ki,human MT2 receptors [1],166 nM
same,Ki,human MT1 receptors [2],251 nM
same,MT2 Intrinsic Activity,human MT2 receptors [3],0.83 ± 0.05
same,MT1 Intrinsic Activity,human MT1 receptors [4],0.61 ± 0.15
"CC(=O)NCCC1CN(Cc2ccccc2)c2ccccc21 (stereo not drawn) [8m, N-[2-(1-Benzyl-2,3-dihydro-1H-indol-3-yl)ethyl]acetamide]",Stability to oxidation in solution,[6],aromatization of the indole ring occurred
"CCC(=O)NC1Cc2ccccc2C(c2ccccc2)C1 (stereo not drawn) [4-P-PDOT, reference compound]",IC50,[7],0.497 nM
same,Ki,[7],0.258 nM
same,nH (Hill coefficient),[7],0.840
"COc1ccc2c(c1)C(CCNC(C)=O)C(=O)N2 (stereo not drawn) [7a, N-[2-(5-methoxy-2-oxo-2,3-dihydro-1H-indol-3-yl)ethyl]acetamide]",IC50,[5]; MT1,> 1000 nM
same,inhibition at 50 pM,[5],4%
same,inhibition at 0.001 µM,[5],3%
same,inhibition at 1 µM,[5],46%
same,IC50,[7],268 nM
same,Ki,[7],139 nM
same,nH (Hill coefficient),[7],0.676
same,inhibition at 50 pM,[7],4%
same,inhibition at 0.001 µM,[7],3%
same,inhibition at 1 µM,[7],71%
"CC(=O)NCCC1(C)CN(Cc2ccccc2)c2ccccc21 (stereo not drawn) [8b, N-[2-(1-Benzyl-3-methyl-2,3-dihydro-1H-indol-3-yl)ethyl]acetamide]",Ki,human MT2 receptors [1],72.4 nM
same,Ki,human MT1 receptors [2],1740 nM
same,MT2 Intrinsic Activity,human MT2 receptors [3],0.45 ± 0.04
same,MT1 Intrinsic Activity,human MT1 receptors [4],0.33 ± 0.04
"CC(=O)NCC1CC12CN(C)c1ccccc12 (stereo not drawn) [10a, N-{1′-Methyl-1′,2′-dihydrospiro[cyclopropan-1,3′-indol]-3-ylmethyl}acetamide]",Stability to oxidation in solution,[6],oxidized to 2-oxindole
"COc1ccc2[nH]c(Cl)c(CCNC(C)=O)c2c1 [7d, 2-chloromelatonin]",IC50,[5]; MT1,0.138 nM
same,Ki,[5]; MT1,0.0716 nM
same,nH (Hill coefficient),[5]; MT1,0.925
same,inhibition at 50 pM,[5],28%
same,inhibition at 0.001 µM,[5],86%
same,inhibition at 1 µM,[5],100%
same,MT1 receptor binding activity compared with melatonin,"[5]; MT1, in words",more active than melatonin
same,IC50,[7],0.338 nM
same,Ki,[7],0.176 nM
same,nH (Hill coefficient),[7],1.01
same,inhibition at 50 pM,[7],13%
same,inhibition at 0.001 µM,[7],75%
same,inhibition at 1 µM,[7],98%
"CC(=O)NCCC1(C)CN(C)c2ccccc21 (stereo not drawn) [8a, N-[2-(1,3-Dimethyl-2,3-dihydro-1H-indol-3-yl)ethyl]acetamide]",Ki,human MT2 receptors [1],427 nM
same,Ki,human MT1 receptors [2],776 nM
same,MT2 Intrinsic Activity,human MT2 receptors [3],0.74 ± 0.07
same,MT1 Intrinsic Activity,human MT1 receptors [4],0.47 ± 0.10
